From patent publication US11267815B2, “Class of amino-substituted nitrogen-containing fused ring compounds, preparation method therefor, and use thereof” (SHANGHAI RINGENE BIOPHARMA CO., LTD., priority 2017, dated 2022) come the findings set out here.

Where only a bound is given, the exact number is not on record here.

Data set [1] concerns the target FGFR1 (Homo sapiens (Human), UniProt P11362). As to the kind of experiment: Inhibitory activity on kinase FGFR1 (Caliper mobility shift). The format is biochemical. The note with it: read-out: FGFR1 IC50. The method, then: (§1) (1). Preparation of 1×Kinase buffer; (2) Preparation of the gradient concentrations of the compounds: the concentration of the compounds to be tested started from 10 μM, which was 3-fold diluted to prepare 10 dilutions, and then tested in duplicated wells. The compounds were 100-fold serially diluted into 10 dilutions with different final concentrations in 96-well plates, each of which was further diluted with 1×Kinase buffer to prepare an intermediate dilution having a concentration of 5 times the final concentration; (3) adding 5 μL of each of the prepared compound solution into the compound wells of 384-well plates, and each concentration set single well; adding 5 μL of 5% DMSO into negative control wells and positive control wells respectively; (4) preparing a kinase solution having a concentration of 2.5 times the final concentration with 1×kinase buffer; (5) adding 10 μL of kinase solution at a concentration of 2.5 times the final concentration into the compound wells and the positive control wells respectively; and adding 10 μL of 1×Kinase buffer into the negative control wells; (6) centrifuging at 1000 rpm for 30 seconds, and incubating at room temperature for 10 minutes after shaking and mixing evenly; (7) preparing a mixed solution of ATP and Kinase substrate 22 having a concentration of 2.5 times the final concentration with 1×Kinase Buffer; (8) adding 10 μL of the mixed solution of ATP and substrate at a concentration of 2.5 times the final concentration to initiate the reaction; (9) Centrifuging the 384-well plates at 1000 rpm for 30 seconds, and incubating at 28° C. for corresponding time respectively after shaking and mixing; (10) adding 30 μL of stop detection solution to stop the kinase reaction, centrifuging at 1000 rpm for 30 seconds, and shaking and mixing the mixture evenly; (11) reading the conversion rate by Caliper Ezreader II. The dose-effect curve was fitted by the log (inhibitor) vs. response-variable slope of GraphPad Prism 5 with the log value of concentration as the X axis and the percentage inhibition rate as the Y axis, then the IC50 value of each compound on the enzyme activity was obtained.

In data set [2] the target is FGFR4 (Homo sapiens (Human), UniProt P22455). As to the kind of experiment: Inhibitory activity on kinase FGFR4 (Caliper mobility shift). It is filed as biochemical. The note with it: read-out: FGFR4 IC50. The method, then: as §1
FGFR4, sequence (P22455 22-802): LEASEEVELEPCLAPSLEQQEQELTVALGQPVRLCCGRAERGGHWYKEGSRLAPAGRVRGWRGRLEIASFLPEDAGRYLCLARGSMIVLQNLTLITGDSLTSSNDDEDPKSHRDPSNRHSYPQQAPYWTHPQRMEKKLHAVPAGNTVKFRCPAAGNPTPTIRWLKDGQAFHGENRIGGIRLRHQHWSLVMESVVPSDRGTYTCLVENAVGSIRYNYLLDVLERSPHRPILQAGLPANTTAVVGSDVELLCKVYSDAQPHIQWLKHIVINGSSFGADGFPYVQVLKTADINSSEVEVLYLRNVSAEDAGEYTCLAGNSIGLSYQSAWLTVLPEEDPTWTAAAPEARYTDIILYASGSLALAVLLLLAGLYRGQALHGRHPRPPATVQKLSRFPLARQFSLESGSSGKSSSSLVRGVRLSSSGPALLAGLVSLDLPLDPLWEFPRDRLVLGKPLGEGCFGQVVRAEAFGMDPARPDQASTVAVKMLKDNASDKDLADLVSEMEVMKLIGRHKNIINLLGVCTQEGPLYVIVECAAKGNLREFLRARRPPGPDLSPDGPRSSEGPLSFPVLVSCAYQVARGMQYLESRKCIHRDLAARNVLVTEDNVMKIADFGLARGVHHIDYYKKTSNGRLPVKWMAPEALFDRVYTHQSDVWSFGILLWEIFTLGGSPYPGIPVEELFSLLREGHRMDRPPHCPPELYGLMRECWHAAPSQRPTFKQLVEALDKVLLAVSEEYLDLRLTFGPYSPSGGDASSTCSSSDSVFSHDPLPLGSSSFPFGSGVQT
Data set [3] relates to Hep3B cells. Briefly: Hep3B cell proliferation (CellTiter-Glo, 72 hours). The format is cell-based. Conditions: read-out: Hep3B IC50. How it is done:
1. Test method: inoculating Hep3B cells (ATCC) in logarithmic growth phase at an appropriate density in a 96-well culture plate, with 100 μL per well. After overnight culture, different concentrations of compounds were added to stay for 72 hours, and menstruum control group (negative control) was set, and the incubation was performed under the condition of 5% CO2 at 37° C. Adding 10 mM compound stock solution to the cells, after the cells were incubated with the compounds for 72 hours, the effects of the compounds on cell proliferation were determined by CellTiter-Glo (Promega) method. 30 μL CTG reagent was added to each well and the resulting mixtures were placed in a 37° C. incubator for 2-4 hours. Then the plate was read by a full-wavelength microplate enzyme reader Envision at a […].
The inhibition rates (%) of the compounds on tumor cell growth were calculated by the following formula: inhibition rate (%)=(OD negative control well−OD administration well)/OD negative control well×100%. IC50 values were obtained by four parameters regression using Graphpad Prism 5 software.

The subject of data set [4] is EGFR, VEGFR, PDGFR, FGFR, RET, MET, Src, Lyn, Syk, MEK, CDK, RA, ROS. As to the kind of experiment: Inhibitory activities on different kinases (selectivity). The note with it: versus different kinases. It is filed as biochemical. How it is done:
The inhibitory activities of the compounds of the present disclosure on different kinases such as EGFR, VEGFR, PDGFR, FGFR, RET, MET, Src, Lyn, Syk, MEK, CDK, RA, ROS, etc., were also determined.

Data set [5] relates to various tumor cells (HuH-7, SNU-16, KG1, UM-UC-14, RT-112 etc.). Briefly: Proliferation inhibitory activity on various tumor cells (SRB or CCK8). The format is cell-based. Conditions: SRB or CCK8 method; read-out: proliferation inhibitory activities on various tumor cells. A general note: Tetrazolium dyes change colour on reduction, which living cells bring about.
A short description of data set [6]: ADME tests: liver microsome metabolic stability and direct inhibition test. The format is in vitro ADME. The note with it: metabolic stability, direct inhibition test. How it is done:
(1) Metabolic stability test: 150 μL system of liver microsome (final concentration 0.5 mg/mL) was used for metabolic stability incubation, the system contained NADPH (final concentration 1 mM), 1 μM test compound and positive control Midazolam or negative control Atenolol, then the reaction was terminated with Tinidazole-containing acetonitrile at 0 min, 5 min, 10 min and 30 min respectively, and the mixtures were vortexed for 10 minutes and centrifuged for 10 minutes at 15000 rmp, 50 μL of the supernatants were added into 96-well plate for injection. The metabolic stability of the compounds was calculated by measuring the relative reduction of the original drug.
(2) Direct inhibition test (DI test): Direct inhibition incubation was carried out with 100 μL system of human liver microsome (final concentration 0.2 mg/mL), the system containing NADPH (final concentration 1 mM), 10 μM compound, positive inhibitor cocktail (Ketoconazole 10 μM, Quinidine 10 μM, Sulfaphenazolum 100 μM, α-Naphthoflavone 10 μM, Tranylcypromine 1000 μM), negative control (BPS containing 0.1% DMSO) and mixed probe substrates (Midazolam 10 μM, Testosterone 100 μM, Dextromethorphan […], Diclofenac 20 μM, Phenacetin 100 μM, Mephenytoin 100 μM) was incubated for 20 minutes and then the reaction was terminated. The relative activity of enzymes was calculated by measuring the relative production of metabolites.
On the technique in general: Liver microsomes are a subcellular fraction often used to study metabolism.

Data set [7] is described as follows: Pharmacokinetics in rats or mice after intragastric and intravenous administration. It is filed as in vivo, SD rats or BALB/c mice. Conditions: iv 3 mg/kg, intragastric 10 mg/kg. The method, then:
(3) LC/MS/MS method was used to measure the drug concentration in plasma at different time points after the embodiment compounds were administered to the rats or mice by intragastric administration and intravenous injection respectively, so as to study the pharmacokinetic behavior of the compounds of the present disclosure in rats or mice and evaluate the pharmacokinetic characteristics thereof. […]

Data set [8] relates to xenograft tumors. As to the kind of experiment: Xenograft tumor growth in nude mice. The format is in vivo. Conditions: oral, daily for three weeks, lower dose (even less than 20 mg/kg). How it is done:
1. The tumor tissue in vigorous growth period was cut into about 1.5 mm^3, and subcutaneously inoculated into the right armpit of nude mice under sterile condition. The diameter of the subcutaneous transplanted tumors in nude mice was measured with vernier caliper, and the animals were randomly divided into groups when the average volume of the tumor reached about 130 mm^3. The embodiment compounds (prepared to the desired concentration with water for injection containing 1% Tween 80 for later use) were orally administered at a predetermined dose every day for three weeks, while a same amount of menstruum was administered in the menstruum control group. During the whole experiment, the diameter of the xenograft tumor was measured twice a week and the weight of the mice was weighed at the same time. The tumor volume (TV) was calculated by the formula: TV=½×a×b^2, where a and b represent length and width respectively. According to the measured results, the relative tumor volume (RTV) was calculated by the formula: RTV=Vt/V0, where V0 was the tumor volume measured when the mice were divided into cages for administration (i.e., d0) and Vt was the tumor volume at each measurement. […]

FGFR1, sequence (P11362 22-822): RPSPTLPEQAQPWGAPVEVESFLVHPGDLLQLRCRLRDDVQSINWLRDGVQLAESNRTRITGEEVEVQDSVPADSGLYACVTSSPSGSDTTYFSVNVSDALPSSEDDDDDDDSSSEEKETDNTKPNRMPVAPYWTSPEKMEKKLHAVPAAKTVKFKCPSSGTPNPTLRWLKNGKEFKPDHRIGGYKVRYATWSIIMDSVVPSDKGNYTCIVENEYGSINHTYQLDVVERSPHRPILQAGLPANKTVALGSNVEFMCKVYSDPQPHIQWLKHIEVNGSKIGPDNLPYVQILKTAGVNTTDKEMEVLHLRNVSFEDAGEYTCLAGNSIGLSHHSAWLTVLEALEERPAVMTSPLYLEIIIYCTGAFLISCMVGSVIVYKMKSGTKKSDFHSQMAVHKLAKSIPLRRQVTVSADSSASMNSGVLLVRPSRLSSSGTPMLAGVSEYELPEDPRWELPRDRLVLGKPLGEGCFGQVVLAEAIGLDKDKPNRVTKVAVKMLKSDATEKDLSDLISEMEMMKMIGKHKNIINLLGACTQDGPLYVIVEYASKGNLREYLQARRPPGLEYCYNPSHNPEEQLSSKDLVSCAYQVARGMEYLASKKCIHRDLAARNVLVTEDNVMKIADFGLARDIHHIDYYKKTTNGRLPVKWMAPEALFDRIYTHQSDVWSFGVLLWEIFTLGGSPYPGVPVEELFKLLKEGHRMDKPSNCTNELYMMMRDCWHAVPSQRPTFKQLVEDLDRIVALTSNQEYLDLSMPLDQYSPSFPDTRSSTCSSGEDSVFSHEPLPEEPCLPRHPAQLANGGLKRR

On to `C=CC(=O)Nc1ccc(-c2cn3c(n2)c(-c2c(Cl)c(OC)cc(OC)c2Cl)cc2cnc(NC)nc23)cc1` [Embodiment 17, N-(4-(6-(2,6-dichloro-3,5-phenyldimethoxyphenyl)-2-(methylamine)imidazo[1′,2′:1,6]pyrido[2,3-d]pyrimidin-8-yl)phenyl)acrylamide], for which the IC50 in data set [1] is below 20 nM; in data set [2] it was above 200 nM; in data set [3], 20 to 200 nM; in data set [5], below 100 nM. The kinase selectivity result in data set [4] is on record as “greater than 100 times”. In addition, in data set [6], the ADME properties entry is reported as “better ADME properties”. Besides, the “absorption and metabolism properties in rats and mice” value in data set [7] was “good absorption and metabolism properties in rats and mice”. In data set [8], the anti-tumor rate result was “more than 80%”.
